Data: patent US10813941B2, “Methods and compounds for treating malaria” (THE GEORGE WASHINGTON UNIVERSITY, A CONGRESSIONALLY …, priority 2016, dated 2020)
Where two headings read alike, the source gives them in different places.

Key:
[1] = tested on: P. falciparum had1 (PfHad1 loss-of-function strain); assay: microbe, parasite or virus in culture; assay type: cell-based, Plasmodium falciparum
Text: (§1) P. falciparum strains were obtained through the MR4 as part of the BEI Resources Repository, NIAID NIH (www.mr4.org): Plasmodium falciparum 3D7 (wild-type, WT), Plasmodium falciparum K1 (MRA-159; chloroquine and sulfadoxine-pyrimethamine resistant) deposited by D E Kyle, and Plasmodium falciparum IPC 5202 Battambang Cambodia 2011 (MRA-1240; chloroquine and artemisinin resistant) deposited by Didier Menard at the Institut Pasteur du Cambodge. The P. falciparum mutant containing increased levels of MEP pathway metabolites had1 (MRA-1257), and its compliment had1+PfHad1-GFP (MRA-1258), were generated in strain 3D7 as reported (BEI Resources; Guggisburg 2014). Parasites were cultured in a 2% suspension of human erythrocytes and RPMI 1640 (Sigma) medium supplemented with 27 mM sodium bicarbonate, 11 mM glucose, 5 mM HEPES, 1 mM sodium pyruvate, 0.37 mM hypoxanthine, 0.01 mM thymidine, 10 μg/ml gentamicin, and 0.5% albumax (Gibco) at 37° C., 5% O2/5% CO2/90% N2 atmosphere as previously described (Zhang 2011).
(§2) Asynchronous P. falciparum cultures were diluted to 1% parasitemia and were treated with FR900098 analogs at concentrations ranging from 0.25 ng/ml-100 μg/ml. Growth inhibition assays were performed in opaque 96-well plates at 100 μl culture volume. After 3 days, parasite growth was quantified by measuring DNA content using PicoGreen (Life Technologies), as described. Fluorescence was measured on a FLUOstar Omega microplate reader (BMG Labtech) at 485 nm excitation and 528 nm emission. Half maximal inhibitory concentration (IC50) values were calculated by nonlinear regression analysis using GraphPad Prism software. For isopentenyl pyrophosphate (IPP) (Echelon) rescue experiments, 250 μM IPP was added to the appropriate wells for the duration of the experiment.

P. falciparum = settings: cited from earlier work
P. falciparum Battambang = assay: P. falciparum growth inhibition assay, strain Battambang; assay type: cell-based, Plasmodium falciparum; settings: P. falciparum Battambang (chloroquine and artemisinin resistant), 72 h
Text: as §1, with “Parasites were cultured in a 2% suspension of human erythrocytes and RPMI 1640 (Sigma) medium supplemented with 27 mM sodium bicarbonate, 11 mM glucose, 5 mM HEPES, 1 mM sodium pyruvate, 0.37 mM hypoxanthine, 0.01 mM thymidine, 10 μg/ml gentamicin, and 0.5% albumax (Gibco) at 37° C., 5% O2/5% CO2/90% N2 atmosphere as previously described (Zhang 2011).” left out
as §2, with “Growth inhibition assays were performed in opaque 96-well plates at 100 μl culture volume.” left out, “For isopentenyl pyrophosphate (IPP) (Echelon) rescue experiments, 250 μM IPP was added to the appropriate wells for the duration of the experiment.” left out

P. falciparum D10 = assay: P. falciparum growth inhibition assay, strain D10; assay type: cell-based, Plasmodium falciparum; settings: P. falciparum D10 (mefloquine resistant), 72 h
Description: as §2

P. falciparum K1 = assay: P. falciparum growth inhibition assay, strain K1; assay type: cell-based, Plasmodium falciparum; settings: P. falciparum K1 (chloroquine and sulfadoxine-pyrimethamine resistant), 72 h
Text: as §1, with “Parasites were cultured in a 2% suspension of human erythrocytes and RPMI 1640 (Sigma) medium supplemented with 27 mM sodium bicarbonate, 11 mM glucose, 5 mM HEPES, 1 mM sodium pyruvate, 0.37 mM hypoxanthine, 0.01 mM thymidine, 10 μg/ml gentamicin, and 0.5% albumax (Gibco) at 37° C., 5% O2/5% CO2/90% N2 atmosphere as previously described (Zhang 2011).” left out
as §2, with “Growth inhibition assays were performed in opaque 96-well plates at 100 μl culture volume.” left out, “For isopentenyl pyrophosphate (IPP) (Echelon) rescue experiments, 250 μM IPP was added to the appropriate wells for the duration of the experiment.” left out

P. falciparum strain 3D7 = assay: IPP rescue of growth inhibition; assay type: cell-based, Plasmodium falciparum; settings: 250 μM IPP; RCB-185 1.2 nM-590.5 nM
Description: as §2

P. falciparum D6 = assay: P. falciparum growth inhibition assay, strain D6; assay type: cell-based, Plasmodium falciparum; settings: P. falciparum D6 (mefloquine resistant), 72 h
Description: as §2

[2] = rat, oral administration; cited from earlier work
P. falciparum 7G8 = assay: P. falciparum growth inhibition assay, strain 7G8; assay type: cell-based, Plasmodium falciparum; settings: P. falciparum 7G8 (quinine, chloroquine, and pyrimethamine resistant), 72 h
Description: as §2

P. falciparum 3D7 = assay: P. falciparum growth inhibition assay (PicoGreen, 72 h), strain 3D7; assay type: cell-based, Plasmodium falciparum
Text: as §1, §2

[3] = cited from earlier work
[4] = mouse, oral administration; cited from earlier work
[5] = tested on: MEP pathway in P. falciparum strain 3D7; assay: MEP pathway metabolite levels by LC-MS/MS; assay type: cell-based, Plasmodium falciparum; settings: for reduction in MEcPP levels: 10 h
Description: P. falciparum strain 3D7 was cultured at 37° C. in 30 ml volumes in 100 mm tissue culture dishes (Techno Plastic Products) at 4% hematocrit until >8% parasitemia. […] Cultures were then lysed with 5% saponin, the parasite pellets washed with 1× phosphate-buffered saline (PBS), and the pellets stored at −80° C. Samples were extracted via addition of 600 μl of ice-cold extraction solvent [chloroform, methanol, and acetonitrile (2:1:1, v/v/v)] and two liquid nitrogen-cooled 3.2 mm stainless steel beads, followed by homogenization in the Tissue-Lyser II instrument (Qiagen, Valencia, Calif.) at 20 Hz for 5 min in a cold sample rack. Ice-cold water (600 μl) was added, and samples were homogenized for an additional 5 min at 20 Hz. After centrifugation (14,000 rcf at 4° C. for 5 min), the polar upper phase was aspirated and lyophilized. Dried samples were dissolved in 100 μl water and analyzed by LC-MS/MS.
The 4000QTRAP LC-MS/MS system (AB Sciex) was used in multiple-reaction monitoring (MRM) mode using negative ionization. The detailed instrument configuration and compound-dependent parameters for isoprenoid precursors were as previously described (Zhang 2011). LC separation prior to MRM detection was achieved by ion pair reverse-phase chromatography as described previously, with 10 mM tributylammonium acetate (pH 5.1-5.5) used as the ion pair reagent and the following modifications: (1) RP-hydro 100 mm×2.0 mm, 2.5 μm high performance liquid chromatography column (Phenomenex), (2) flow rate of 0.14 ml/min, (3) solvent A of 10 mM tributylammonium acetate in 5% methanol, (4) binary LC gradient (20% solvent B (100% methanol) from 0 to 2.5 min, 30% B for 12.5 min, 80% B for 5 min, and column equilibration at for 5 min), and (5) autosampler injection volume of 20 μl. For DOXP and MEcPP metabolites, one-way ANOVA was used to test for significance (VassarStats). A t-test was used to test for significance between UNT and 1× RCB-185 CDP-ME levels (VassarStats).

[6] = tested on: P. falciparum strain NF54 gametocytes; assay: Gametocyte assay (flow cytometry); assay type: cell-based, Plasmodium falciparum; settings: 72 h, 5 μM to 0.001 μM
Description: The next day, the parasites were resuspended at 10% gametocytemia, and 2% hematocrit.
A 96-well plate was prepared with 2× concentration of RCB-185 ranging 10 μM to 0.002 μM in complete RPMI with 1% DMSO as well as a positive control, 65 nM epoxomicin, and a negative control, 1% DMSO. Percoll purified NF54 strain P. falciparum gametocytes were added to individual wells at 2% hematocrit and 10% parasitemia in a 1:1 dilution, resulting in a final 1% hematocrit and a two-fold dilution of RCB-185 for a final concentration range of 5 μM to 0.001 μM and a final 0.5% DMSO, 32.5 nM epoxomicin. The plate was gassed with 90% N2, 5% O2, 5% CO2 and incubated at 37° C. with compound for 72 h. Following incubation, cells were analyzed using flow cytomtetry as described below.
Cells were incubated at a final 0.1% hematocrit in 50 nM DiIC(1)5 with buffer containing 1.67 mg/ml glucose, 8 mg/mL NaCl, 8 mM Tris-Cl (pH 7.4) and incubated at 37° C. for 20-30 minutes prior to analysis on BD Accuri C6 flow cytometer. Uninfected RBCs and unstained P. falciparum infected RBCs were incubated with MitoProbe DiIC1(5) as controls to determine the threshold for MitoProbe DiIC1(5) (640 nm laser excitation and FL4 emission filter [675/25 nm]) positive, single, and intact cell populations. One-way ANOVA was used to test for significance between the three treatment groups (VassarStats).

[7] = tested on: P. falciparum had1+HAD1-GFP; assay: P. falciparum growth inhibition assay, complemented strain had1+HAD1-GFP; assay type: cell-based, Plasmodium falciparum; settings: had1 mutant supplied with WT copy of had1, FIG. 3 panel B
Text: as §1, with “Parasites were cultured in a 2% suspension of human erythrocytes and RPMI 1640 (Sigma) medium supplemented with 27 mM sodium bicarbonate, 11 mM glucose, 5 mM HEPES, 1 mM sodium pyruvate, 0.37 mM hypoxanthine, 0.01 mM thymidine, 10 μg/ml gentamicin, and 0.5% albumax (Gibco) at 37° C., 5% O2/5% CO2/90% N2 atmosphere as previously described (Zhang 2011).” left out
as §2, with “Growth inhibition assays were performed in opaque 96-well plates at 100 μl culture volume.” left out, “For isopentenyl pyrophosphate (IPP) (Echelon) rescue experiments, 250 μM IPP was added to the appropriate wells for the duration of the experiment.” left out

P. berghei ANKA = assay: Mouse model of malaria, P. berghei asexual blood stages (luciferase); assay type: in vivo, Swiss Webster mice
Description: In vivo testing of RCB-185 against intraerythrocytic P. berghei parasites was performed by the Anti-Infectives Screening Core at NYU School of Medicine. Briefly, groups of 5-7 female Swiss Webster mice weighing 25-30 g were infected via intraperitoneal injection with 10^3 transgenic P. berghei ANKA that express a fusion GFP (mutant 3) and firefly luciferase (LucIAV) fusion under the control of the constitutive eeflaα promoter that is stably integrated into the 230p locus (PbGFP-Luccon). Two days post-infection, mice were treated by intraperitoneal injection with 50 mg/kg of the test compound RCB-185 or 20 mg/kg chloroquine or 2% methyl cellulose, 0.5% tween-80 as positive and vehicle controls, respectively. Treatment continued once a day for 5 days. At 7 days post-infection, mice were administered 2.5% isofluorane via a nose cone, and once anesthesized, were injected i.p. with 150 mg/kg of D-Luciferin Potassium-salt (Goldbio) dissolved in PBS. Mice were imaged 5-10 min after injection of luciferin with an IVIS 100 (Xenogen, Alameda, Calif.) and data acquisition and analysis were performed with Livinglmage (Xenogen) to quantify the level of infection. To test for significance between vehicle- and RCB-185-treated mice, a t-test was used (VassarStats).

[8] = Plasmodium falciparum, P. falciparum 3D7 (pan-sensitive, lab adapted), asynchronous, 72 h, mean±SEM

## O=CN(O)CCCP(=O)(O)O [FSM, fosmidomycin, reference compound]
[1]; Plasmodium falciparum
  IC50: 5350 ± 831 nM
P. falciparum; human, in vivo
  tolerability in human patients: well-tolerated
P. falciparum; mean±standard deviation
  parasite clearance: 44 ± 18 h
P. falciparum Battambang; Plasmodium falciparum
  IC50: 863 ± 248 nM
P. falciparum D10; Plasmodium falciparum
  IC50: 2180 ± 353 nM
P. falciparum K1; Plasmodium falciparum
  IC50: 837 ± 141 nM
P. falciparum strain 3D7
  rescue of growth by IPP: rescues
P. falciparum D6; Plasmodium falciparum
  IC50: 1340 ± 247 nM
[2]
  LD50: > 11,000 mg/kg
P. falciparum 7G8; Plasmodium falciparum
  IC50: 1240 ± 189 nM
P. falciparum 3D7; [8]
  IC50: 1020 ± 77.8 nM
P. falciparum 3D7; Plasmodium falciparum, parent strain 3D7 (WT) in had1 comparison, FIG. 3, mean±SEM
  IC50: 1160 ± 158 nM
[3]; in vivo
  serum half-life: 1.87 h
[3]; oral dosing
  bioavailability: 20-40%
[4]
  LD50: > 11,000 mg/kg

## CC(=O)N(O)C/C=C/P(=O)(OCOC(=O)C(C)(C)C)OCOC(=O)C(C)(C)C [RCB-185]
[5]; 1× the IC50 value of 18.3 nM
  reduction in MEcPP levels: 3.0 fold
[5]; 7.5× the IC50 value of 18.3 nM
  reduction in MEcPP levels: 5.7 fold
[5]; 10 h treatment, 1× or 7.5× IC50
  DOXP levels versus untreated: no significant difference
[5]; 10 h treatment, limit of detection 1.25 ng/mL
  CDP-ME levels: below the limits of detection
[5]; 10 h treatment, limit of detection 12.5 ng/ml
  MEP levels: below the limits of detection
[6]
  killing of gametocytes: failure of RCB-185 to kill gametocytes
[1]; had1 IC50 versus WT IC50
  fold more resistant, had1 versus WT parasites: 3.8 fold
[1]; had1 mutant (FSM-resistant), FIG. 3, mean±SEM, read-out: IC50
  IC50: 76.5 ± 18.5 nM
[7]
  IC50: 26 ± 6.4 nM
P. berghei ANKA; 50 mg/kg i.p. once a day
  adverse effects in mice: no adverse effects were observed
P. berghei ANKA; 50 mg/kg i.p. once a day, luciferase signal 7 days post-infection
  drop in parasite load compared to vehicle: > 3 log
P. falciparum Battambang
  IC50: 21.1 ± 1.8 nM
P. falciparum D10
  IC50: 42.5 ± 11.5 nM
P. falciparum K1
  IC50: 31.9 ± 1 nM
P. falciparum strain 3D7
  rescue of growth by IPP: supports growth of P. falciparum treated with RCB-185 at all concentrations tested
P. falciparum D6
  IC50: 37.6 ± 10 nM
P. falciparum 7G8
  IC50: 46.7 ± 10.9 nM
P. falciparum 3D7; 3D7, RCB-185 versus FSM
  fold lower IC50 than FSM: 50 fold
P. falciparum 3D7; P. falciparum 3D7 (pan-sensitive, lab adapted), asynchronous, 72 h, mean±SEM
  IC50: 18.3 ± 1.9 nM
P. falciparum 3D7; parent strain 3D7 (WT) in had1 comparison, FIG. 3, mean±SEM
  IC50: 19.9 ± 4.2 nM

## C[C@@H]1CC[C@H]2[C@@H](C)C(=O)O[C@@H]3O[C@@]4(C)CC[C@@H]1[C@]32OO4 [artemisinin, reference compound]
P. falciparum 3D7; [8]
  IC50: 10.4 ± 1.6 nM

## CCN(CC)CCCC(C)Nc1ccnc2cc(Cl)ccc12 (stereo not shown) [chloroquine, reference compound]
P. berghei ANKA; 20 mg/kg i.p. once a day, 7 days post-infection
  luciferase signal (parasite burden): below the limit of detection
